Results reported in patent US20260256792A1, “TREATMENT OF CHRONIC SPONTANEOUS URTICARIA BY ADMINISTERING (R)-2-[3-[4-AMINO-3-(2-FLUORO-4-PHENOXY-PHENYL)PYRAZOLO[3,4-D]PYRIMIDIN-1-YL]PIPERIDINE-1-CARBONYL]-4-METHYL-4-[4-(OXETAN-3-YL)PIPERAZIN-1-YL]PENT-2-ENENITRILE” (priority 2023, published 2026).

Tested on: moderate-to-severe chronic spontaneous urticaria (CSU)
Experiment: Phase 2 CSU study: urticaria activity score over 7 days (UAS7)
Type: in vivo, human
Set-up: key to UAS7 Median / UAS7 Change from baseline Median / UAS7 change from baseline, Q1 / UAS7 change from baseline, Q3 / UAS7 change from baseline, Max / UAS7 Change from baseline LS Mean (SE): UAS7 points; daily UAS score ranges 0–6 points/day, over 7 days
Text: The study comprises a 12 week, randomized, double-blind, placebo-controlled, multi-center, dose-ranging efficacy and safety phase, followed by a 40 week open label extension (OLE) phase (see FIG. 1). The study consists of three phases and an optional OLE phase. […] Clinically, CSU is characterized by the spontaneous and recurrent appearance of pruritic hives. The proposed primary endpoints were the UAS7 at Week 12 in EU and EU reference countries and the ISS7 in the US. Regardless of where a participant was from, all assessments were the same. The UAS7 score is a composite score containing both the HSS7 and the ISS7. This allowed a global assessment of the two key components of urticaria: hives and itch. […] The UAS is a validated PRO measure. […] The daily UAS scores range from 0 to 6 point/day. […] Patients were to complete the UAS using the e-diary. […] The following secondary endpoints were to be analyzed using the same approach as for the primary endpoint: • Change from baseline in UAS7 at Week 4 • Change from baseline in UAS7 at Week 12 (for US and US reference countries) • Change from baseline in ISS7 at Week 12 (except US and US reference countries) • Change from baseline in HSS7 at Week 12 The following responder secondary endpoints were to be analyzed using the Cochran-Mantel-Haenszel test adjusted by region: • Proportion of participants with UAS7<6 at Week 12 • Proportion of participants with UAS7=0 at Week 12 Participants who received selected prohibited medications and/or rescue medications were to be considered as non-responders for time points after the medication usage. For other participants, all available data including those collected during the off-treatment period were to be used to determine the responder/non-responder status. Missing data were to be considered as non-responders.

[1] = Week 7, 400 mg BID, Prior Omalizumab Use
[2] = Week 7, 400 mg BID, omalizumab-naive participants
[3] = Week 7, 400 mg QPM, ITT population
[4] = Week 7, 400 mg QPM, Omalizumab-Naïve
[5] = Week 7, 400 mg QPM, Prior Omalizumab Use
[6] = Week 7, 400 mg QPM, omalizumab-naive participants
[7] = Week 7, 400 mg TID, ITT population
[8] = Week 7, 400 mg TID, Omalizumab-Naïve
[9] = Week 7, 400 mg TID, Prior Omalizumab Use
[10] = Week 7, 400 mg TID, omalizumab-naive participants
[11] = Week 8, 400 mg BID, ITT population
[12] = Week 8, 400 mg BID, Omalizumab-Naïve
[13] = Week 8, 400 mg BID, Prior Omalizumab Use
[14] = Week 8, 400 mg BID, omalizumab-naive participants

Structure (SMILES): CC(C)(C=C(C#N)C(=O)N1CCC[C@@H](n2nc(-c3ccc(Oc4ccccc4)cc3F)c3c(N)ncnc32)C1)N1CCN(C2COC2)CC1 [rilzabrutinib, (R)-2-[3-[4-amino-3-(2-fluoro-4-phenoxy-phenyl)pyrazolo[3,4-d]pyrimidin-1-yl]piperidine-1-carbonyl]-4-methyl-4-[4-(oxetan-3-yl)piperazin-1-yl]pent-2-enenitrile]
- UAS7 Percent change from baseline Median (Week 7, 400 mg BID, Omalizumab-Naïve): −48.28%
- UAS7 Change from baseline Mean (SD) [1]: −20.40 (19.58)
- UAS7 Change from baseline Median [1]: −25.00
- UAS7 Mean (SD) [1]: 11.60 (15.79)
- UAS7 Median [1]: 2.00
- UAS7 Percent change from baseline Mean (SD) [1]: −58.52 (53.51) %
- UAS7 Percent change from baseline Median [1]: −92.59%
- Non-responder, UAS7 reduction from baseline of 10 points or more [2]: 15 (42.9) n (%)
- OR for rilzabrutinib vs. placebo, UAS7 reduction of 10 points or more [2]: 2.154
- RRD (%) for rilzabrutinib vs. placebo, UAS7 reduction of 10 points or more [2]: 18.5 %
- Responder, UAS7 reduction from baseline of 10 points or more [2]: 20 (57.1) n (%)
- Non-responder, UAS7 reduction from baseline of 10 points or more [3]: 22 (57.9) n (%)
- OR for rilzabrutinib vs. placebo, UAS7 reduction of 10 points or more [3]: 1.159
- RRD (%) for rilzabrutinib vs. placebo, UAS7 reduction of 10 points or more [3]: 3.5 %
- Responder, UAS7 reduction from baseline of 10 points or more [3]: 16 (42.1) n (%)
- UAS7 Change from baseline Mean (SD) [4]: −10.92 (10.06)
- UAS7 Change from baseline Median [4]: −9.00
- UAS7 Mean (SD) [4]: 21.11 (10.03)
- UAS7 Median [4]: 18.20
- UAS7 Percent change from baseline Mean (SD) [4]: −33.33 (28.49) %
- UAS7 Percent change from baseline Median [4]: −36.11%
- UAS7 Change from baseline Mean (SD) [5]: −24.00 (NC)
- UAS7 Change from baseline Median [5]: −24.00
- UAS7 Mean (SD) [5]: 17.00 (NC)
- UAS7 Median [5]: 17.00
- UAS7 Percent change from baseline Mean (SD) [5]: −58.54 (NC) %
- UAS7 Percent change from baseline Median [5]: −58.54%
- Non-responder, UAS7 reduction from baseline of 10 points or more [6]: 22 (59.5) n (%)
- OR for rilzabrutinib vs. placebo, UAS7 reduction of 10 points or more [6]: 1.096
- RRD (%) for rilzabrutinib vs. placebo, UAS7 reduction of 10 points or more [6]: 2.2 %
- Responder, UAS7 reduction from baseline of 10 points or more [6]: 15 (40.5) n (%)
- Non-responder, UAS7 reduction from baseline of 10 points or more [7]: 16 (39.0) n (%)
- OR for rilzabrutinib vs. placebo, UAS7 reduction of 10 points or more [7]: 2.334
- RRD (%) for rilzabrutinib vs. placebo, UAS7 reduction of 10 points or more [7]: 18.7 %
- Responder, UAS7 reduction from baseline of 10 points or more [7]: 25 (61.0) n (%)
- UAS7 Change from baseline Median [8]: −15.00
- UAS7 Mean (SD) [8]: 13.54 (9.34)
- UAS7 Median [8]: 14.00
- UAS7 Percent change from baseline Mean (SD) [8]: −54.22 (30.59) %
- UAS7 Percent change from baseline Median [8]: −52.50%
- UAS7 Change from baseline Mean (SD) [9]: −20.86 (14.89)
- UAS7 Change from baseline Median [9]: −16.00
- UAS7 Mean (SD) [9]: 12.17 (10.21)
- UAS7 Percent change from baseline Mean (SD) [9]: −58.95 (28.44) %
- UAS7 Percent change from baseline Median [9]: −51.29%
- Non-responder, UAS7 reduction from baseline of 10 points or more [10]: 13 (37.1) n (%)
- OR for rilzabrutinib vs. placebo, UAS7 reduction of 10 points or more [10]: 2.765
- RRD (%) for rilzabrutinib vs. placebo, UAS7 reduction of 10 points or more [10]: 22.3 %
- Responder, UAS7 reduction from baseline of 10 points or more [10]: 22 (62.9) n (%)
- Non-responder, UAS7 reduction from baseline of 10 points or more [11]: 17 (41.5) n (%)
- OR for rilzabrutinib vs. placebo, UAS7 reduction of 10 points or more [11]: 1.985
- RRD (%) for rilzabrutinib vs. placebo, UAS7 reduction of 10 points or more [11]: 17.5 %
- Responder, UAS7 reduction from baseline of 10 points or more [11]: 24 (58.5) n (%)
- UAS7 Change from baseline Mean (SD) [12]: −15.64 (11.76)
- UAS7 Change from baseline Median [12]: −16.00
- UAS7 Mean (SD) [12]: 13.98 (13.06)
- UAS7 Median [12]: 10.00
- UAS7 Percent change from baseline Mean (SD) [12]: −54.37 (38.23) %
- UAS7 Percent change from baseline Median [12]: −64.29%
- UAS7 Change from baseline Mean (SD) [13]: −21.00 (19.13)
- UAS7 Change from baseline Median [13]: −26.00
- UAS7 Mean (SD) [13]: 11.00 (15.67)
- UAS7 Median [13]: 1.00
- UAS7 Percent change from baseline Mean (SD) [13]: −61.16 (51.62) %
- UAS7 Percent change from baseline Median [13]: −96.30%
- Non-responder, UAS7 reduction from baseline of 10 points or more [14]: 14 (40.0) n (%)
- OR for rilzabrutinib vs. placebo, UAS7 reduction of 10 points or more [14]: 2.484
